Assay results published in US8772268B2, “Bisphosphonamidate prodrugs and uses thereof” (The Johns Hopkins University, priority 2010, dated 2014).

How the values were obtained:
Format in all cases: cell-based
HUVEC = assay: Sprouting assay on dextran beads (anti-angiogenic activity)
Description: This assay is an unpublished variation of the assay described (Microvascular Research 2003, 66, 102-112) performed by the Hans Hammers Lab at Johns Hopkins University. The assay described in the above reference is described below.
HUVEC were mixed with dextran-coated Cytodex 3 microcarriers (Amersham Pharmacia Biotech, Piscataway, N.J.) at a concentration of 400 HUVEC per bead in 1 ml of EGM-2 medium (Clonetics, Walkersville, Md.). Beads with cells were shaken gently every 20 min for 4 h at 37° C. and 5% CO2. After incubating, beads with cells were transferred to a 25-cm^2 tissue culture flask (BD Biosciences, Bedford, Mass.) and left for 12-16 h in 5 ml of EGM-2 at 37° C. and 5% CO2. The following day, beads with cells were washed three times with 1 ml of EGM-2 and resuspended at a concentration of 200 cell-coated beads/ml in 2.5 mg/ml of fibrinogen (Sigma, St. Louis, Mo.) with or without 0.15 units/ml of aprotinin (Sigma) at a pH of 7.4. Five hundred microliters of fibrinogen/bead solution was added to 0.625 units of thrombin (Sigma) in one well of a 24-well tissue culture plate. […] Bead assays were monitored for 7 days. […]

A549 NSCLC cells = assay: Effect of drug treatment time (MTS, drug removed); settings: A549, 24 or 2 h exposure, viability measured after 48 h
Description: Cell proliferation was determined using the CellTiter 96 Aqueous One Solution Cell Proliferation Assay MTS assay. A549 NSCLC cells were plated at 1.5×10^3 cells per well in flat bottom 96 well plates in 99 μL of media and allowed to adhere overnight. The drugs were serially diluted in 100% DMSO. For each drug treatment group, 1 μL of a 100× stock solution was added to each well for a final DMSO concentration of 1%. Cells were treated for 2, 24, or 48 under normoxic or hypoxic (1-3% oxygen) conditions. Following 2 or 24 h, media containing drug was removed, the cells were washed 1× with fresh media, and 100 μL fresh media was added to each well. Cells were then allowed to grow for an additional 46 or 24 h in drug free media. After 48 h, cells were incubated with MTS dye (20 μL well^−1) for 40 min to 2 h. Absorbance at 490 nm was determined using a SpectraMax M2 (Molecular Devices) plate reader. The percent cell proliferation was calculated by converting the experimental absorbance to percentage of control, which was then plotted vs. drug concentration. The IC50 values were determined using a non-linear dose-response analysis in GraphPad Prism version 4.0.
A549 cells were treated with prodrug 14 for 24 or 2 h. Prodrug was removed and cell viability measured after 48 h using a standard MTS assay. Longer exposure to […] results in lower […].

CCRF-CEM = assay: NCI-60 DTP Human Tumor Cell Line Screen; settings: Leukemia, 48 h
EKVX = assay: NCI-60 DTP Human Tumor Cell Line Screen; settings: Non-Small Cell Lung Cancer, 48 h
HOP-62 = assay: NCI-60 DTP Human Tumor Cell Line Screen; settings: HOP-62, Non-Small Cell Lung Cancer, 48 h
NCI-H522 = assay: NCI-60 DTP Human Tumor Cell Line Screen; settings: NCI-H522, Non-Small Cell Lung Cancer, 48 h
HCT-116 = assay: NCI-60 DTP Human Tumor Cell Line Screen; settings: HCT-116, Colon Cancer, 48 h
SF-268 = assay: NCI-60 DTP Human Tumor Cell Line Screen; settings: SF-268, CNS Cancer, 48 h
MALME-3M = assay: NCI-60 DTP Human Tumor Cell Line Screen; settings: Melanoma, 48 h
OVCAR-3 = assay: NCI-60 DTP Human Tumor Cell Line Screen; settings: OVCAR-3, Ovarian Cancer, 48 h
A498 = assay: NCI-60 DTP Human Tumor Cell Line Screen; settings: A498, Renal Cancer, 48 h
DU145 = assay: NCI-60 DTP Human Tumor Cell Line Screen; settings: DU145, Prostate Cancer, 48 h
HS 578T = assay: NCI-60 DTP Human Tumor Cell Line Screen; settings: Breast Cancer, 48 h

CN(CCCCCl)P(=O)(OCc1ccc([N+](=O)[O-])cc1)C(Cl)(Cl)P(=O)(OCc1ccc([N+](=O)[O-])cc1)N(C)CCCCCl (stereo not drawn) [compound 14]
sprouting (HUVEC; 6 μM): sprouting was delayed for the first few days
sprouting (HUVEC; 10 μM): sprouting is inhibited
growth inhibition over shorter drug treatment times (A549 NSCLC cells): more potent growth inhibition than zoledronate
Log10GI50 (CCRF-CEM): −5.50
Log10LC50 (CCRF-CEM): >−4.00
Log10TGI (CCRF-CEM): >−4.00
Log10GI50 (EKVX): −5.50
Log10LC50 (EKVX): >−4.00
Log10TGI (EKVX): >−4.00
Log10GI50 (HOP-62): >−4.00
Log10LC50 (HOP-62): >−4.00
Log10TGI (HOP-62): >−4.00
Log10GI50 (NCI-H522): −5.66
Log10LC50 (NCI-H522): >−4.00
Log10TGI (NCI-H522): −5.11
Log10GI50 (HCT-116): −5.58
Log10LC50 (HCT-116): >−4.00
Log10TGI (HCT-116): >−4.00
Log10GI50 (SF-268): −5.55
Log10LC50 (SF-268): >−4.00
Log10TGI (SF-268): >−4.00
Log10GI50 (MALME-3M): −5.39
Log10LC50 (MALME-3M): >−4.00
Log10TGI (MALME-3M): >−4.00
Log10GI50 (OVCAR-3): −5.40
Log10LC50 (OVCAR-3): >−4.00
Log10TGI (OVCAR-3): >−4.00
Log10GI50 (A498): −5.74
Log10LC50 (A498): >−4.00
Log10TGI (A498): −5.17
Log10GI50 (DU145): −5.40
Log10LC50 (DU145): >−4.00
Log10TGI (DU145): >−4.00
Log10GI50 (HS 578T): −5.53
Log10LC50 (HS 578T): >−4.00
Log10TGI (HS 578T): −5.04
